Source: patent US10478501B2, “Method of treating disorders using a pharmaceutical composition of oligopeptides” (Merck Patent GmbH, priority 2011, dated 2019)

Experiment: Water Vapour Sorption (dynamic vapour experiments)
Assay type: physicochemical
Conditions: 25° C., up to 98% relative humidity, acc. to Ph. Eur. criteria
Description: Preferably, the anhydrates as described herein and especially the crystalline form A1 can be characterised, alternatively or additionally, by dynamic vapour experiments. The results can be obtained by standard techniques as described in Rolf Hilfiker, ‘Polymorphism in the Pharmaceutical Industry’, Wiley-VCH. Weinheim 2006 (Chapter 9: Water Vapour Sorption, and references therein). […] Eur. criteria.

SMILES: CC(C)[C@H]1C(=O)N[C@@H](CCCNC(=N)N)C(=O)NCC(=O)N[C@@H](CC(=O)O)C(=O)N[C@H](Cc2ccccc2)C(=O)N1C [crystalline form A1, cyclo-(Arg-Gly-Asp-DPhe-NMeVal)]
- hygroscopicity (Water Vapour Sorption behaviour): non-hygroscopic
